Experimental findings from ChEMBL document CHEMBL1201862, “PubChem BioAssay data set” (2004) are described below.

Some test systems named below: T47D; U-251; SF-268; EKVX; MDA-MB-435; SNB-19; NCI-H23; LOX IMVI; A549; RXF 393; UACC-257; K562; OVCAR-8; HCT-116; BT-549; HOP-62; Malme-3M; SF-539; KM12; Hs-578T.
What all share (assay): NCI-60 cell line screen, 48 h

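96-well plates; 48 h exposure; 5 concentrations. Endpoints by linear interpolation between flanking doses. Not reached: highest tested concentration assigned. GI50: concentration for 50% inhibition of growth.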 Activity calls are given as the source filed them. Rule as the data show it: active = GI50 up to about 1.1 µM and inactive = higher.

In the case of `CCCCCCCCCCCCCC(=O)CBr`, the GI50 in the assay with T47D was 3.94 µM (inactive); in the assay on U-251 it was 14.6 µM (inactive); in the assay with SF-268 it was 12.2 µM (inactive); with EKVX, 18.7 µM (inactive); in the assay on MDA-MB-435 it was 16.7 µM (inactive); with SNB-19, 16.9 µM (inactive). For the same molecule, the GI50 with NCI-H23 was 9.77 µM (inactive); with LOX IMVI, 3.83 µM (inactive); in the assay with A549 it was 22.5 µM (inactive); with RXF 393 it was 3.3 µM (inactive); with UACC-257, 13.2 µM (inactive); with K562 it was 3.53 µM (inactive). Moreover, the GI50 is 14 µM (inactive) with OVCAR-8; 12.3 µM (inactive) in the assay on HCT-116; 8.71 µM (inactive) in the assay with BT-549; 21.5 µM (inactive) with HOP-62; 9.06 µM (inactive) in the assay on Malme-3M; 13.2 µM (inactive) with SF-539. Besides, the GI50 with KM12 was 12.1 µM (inactive); in the assay with Hs-578T, 5.64 µM (inactive).
As to `Cn1c2ccccc2c2ccc3c(c21)C(=O)c1ccc2c4ccccc4n(C)c2c1C3=O`, the GI50 in the assay with T47D, in the assay with U-251, in the assay on SF-268, in the assay with EKVX, in the assay with MDA-MB-435 and with SNB-19 was > 100 µM (inactive) each time. Besides, the GI50 in the assay with NCI-H23, with LOX IMVI, with A549, in the assay on RXF 393, with UACC-257 and in the assay on K562 was > 100 µM (inactive) throughout. For the same molecule, the GI50 in the assay on OVCAR-8 was > 100 µM (inactive); in the assay with HCT-116, > 96.2 µM (inactive); with BT-549, > 100 µM (inactive); in the assay with HOP-62, > 100 µM (inactive); in the assay with Malme-3M, 87.5 µM (inactive); in the assay with SF-539, > 100 µM (inactive). The GI50 with KM12 and in the assay with Hs-578T was > 100 µM (inactive) throughout.
On to `Cc1nc2ccccc2c(=O)n1NC(=O)Cc1ccccc1`, for which the GI50 with T47D, with U-251, in the assay with SF-268, in the assay on EKVX, in the assay on MDA-MB-435 and in the assay on SNB-19 was > 100 µM (inactive) each time. For the same molecule, the GI50 in the assay on NCI-H23, with LOX IMVI, in the assay with A549, in the assay with RXF 393, in the assay on UACC-257 and in the assay with K562 was > 100 µM (inactive) throughout. For the same molecule, the GI50 with OVCAR-8, with HCT-116, in the assay on BT-549, with HOP-62, in the assay with Malme-3M and in the assay on SF-539 was > 100 µM (inactive) in each case. The GI50 in the assay on KM12 and in the assay with Hs-578T was > 100 µM (inactive) each time.
Consider `COc1ccc(C2c3cc4c(cc3OC(N3CCOCC3)C2C)OCO4)c(OC)c1` (stereo not given), for which the GI50 is 5.83 µM (inactive) in the assay with T47D; 4.09 µM (inactive) in the assay with U-251; 6.95 µM (inactive) with SF-268; 13.9 µM (inactive) in the assay on EKVX; 2.14 µM (inactive) with MDA-MB-435; 4.36 µM (inactive) with SNB-19. For the same molecule, the GI50 is 11.9 µM (inactive) in the assay on NCI-H23; 4.27 µM (inactive) in the assay on LOX IMVI; 7.43 µM (inactive) with A549; 2.94 µM (inactive) in the assay on RXF 393; 6.3 µM (inactive) in the assay on UACC-257; 3.02 µM (inactive) with K562. The GI50 in the assay with OVCAR-8 was 8 µM (inactive); in the assay on HCT-116, 3.77 µM (inactive); with BT-549, 3.23 µM (inactive); in the assay with HOP-62, 5.06 µM (inactive); in the assay with Malme-3M, 5.11 µM (inactive); in the assay with SF-539, 3.05 µM (inactive). Further, the GI50 in the assay with KM12 was 4.94 µM (inactive); with Hs-578T, 1.97 µM (inactive).
`Cc1nc2c(nc1C)-c1c(c3c(n1C)C(=O)CCC3)C(=O)C2=O`: the GI50 in the assay on T47D was 0.0697 µM (active); in the assay on U-251, 0.213 µM (active); with SF-268, 0.295 µM (active); with EKVX it was 1.06 µM (active); in the assay with MDA-MB-435 it was 0.174 µM (active); in the assay on SNB-19, 0.873 µM (active). In addition, the GI50 is 0.743 µM (active) in the assay with NCI-H23; 0.186 µM (active) in the assay with LOX IMVI; 1.3 µM (inactive) with A549; 0.16 µM (active) in the assay with RXF 393; 1.4 µM (inactive) in the assay with UACC-257; 0.338 µM (active) with K562. Moreover, the GI50 is 0.236 µM (active) with OVCAR-8; 0.249 µM (active) in the assay with HCT-116; 0.0259 µM (active) in the assay with BT-549; 0.885 µM (active) with HOP-62; 0.297 µM (active) with Malme-3M; 1.22 µM (inactive) with SF-539. The GI50 is 1.45 µM (inactive) with KM12 and 1.42 µM (inactive) in the assay on Hs-578T.
As for `Cc1nc2ccc(C(F)(F)F)cc2nc1NCc1ccc(Cl)c(Cl)c1`, the GI50 is 0.735 µM (active) with T47D; 16.5 µM (inactive) in the assay on U-251; 16 µM (inactive) with SF-268; 14.1 µM (inactive) in the assay with EKVX; 17.4 µM (inactive) in the assay on MDA-MB-435; 18.4 µM (inactive) with SNB-19. Moreover, the GI50 in the assay on NCI-H23 was 16 µM (inactive); with LOX IMVI, 15.3 µM (inactive); in the assay with A549, 16.4 µM (inactive); in the assay on RXF 393 it was 12.5 µM (inactive); with UACC-257, 15.9 µM (inactive); in the assay on K562, 20.4 µM (inactive). The GI50 was 17.2 µM (inactive) in the assay on OVCAR-8; 16.4 µM (inactive) in the assay with HCT-116; 20.2 µM (inactive) in the assay on BT-549; 14.4 µM (inactive) with HOP-62; 17.2 µM (inactive) in the assay on Malme-3M; 17.5 µM (inactive) with SF-539. Also, the GI50 was 14.2 µM (inactive) in the assay on KM12 and 23.6 µM (inactive) in the assay with Hs-578T.
For `O=C(/C=C/c1ccc(O)c(O)c1)NC(COC(=O)/C=C/c1ccc(O)c(O)c1)C(=O)O` (stereo not given), the GI50 in the assay on T47D, in the assay with U-251, in the assay on SF-268, with EKVX, with MDA-MB-435 and with SNB-19 was > 100 µM (inactive) throughout. For the same molecule, the GI50 in the assay on NCI-H23, with LOX IMVI, in the assay on A549, with RXF 393, in the assay on UACC-257 and in the assay with K562 was > 100 µM (inactive) in each case. Moreover, the GI50 with OVCAR-8, with HCT-116, in the assay with BT-549, in the assay with HOP-62, with Malme-3M and with SF-539 was > 100 µM (inactive) throughout. Also, the GI50 with KM12 and with Hs-578T was > 100 µM (inactive) in each case.
Consider `CC1(C)CCC(=O)NC1CC(=O)CC1NC(=O)CCC1(C)C` (stereo not given), for which the GI50 in the assay on T47D, in the assay on U-251, in the assay with SF-268, in the assay on EKVX, in the assay with MDA-MB-435 and in the assay with SNB-19 was > 100 µM (inactive) in each case. For the same molecule, the GI50 with NCI-H23, in the assay on LOX IMVI, in the assay on A549, in the assay on RXF 393, in the assay with UACC-257 and in the assay on K562 was > 100 µM (inactive) in each case. Besides, the GI50 in the assay with OVCAR-8, in the assay with HCT-116, in the assay on BT-549, with HOP-62, with Malme-3M and in the assay on SF-539 was > 100 µM (inactive) throughout. Besides, the GI50 in the assay with KM12 and with Hs-578T was > 100 µM (inactive) each time.
On to `CC1(CNCc2ccccc2)CC(CCc2ccccc2)N(C(=O)c2ccc([N+](=O)[O-])cc2)C1Cc1ccc(O)cc1` (stereo not given), for which the GI50 in the assay with T47D was 5.32 µM (inactive); in the assay with U-251, 12.3 µM (inactive); with SF-268, 13.4 µM (inactive); in the assay with EKVX it was 14.4 µM (inactive); with MDA-MB-435, 14.2 µM (inactive); in the assay on SNB-19, 14.7 µM (inactive). For the same molecule, the GI50 with NCI-H23 was 10.3 µM (inactive); with LOX IMVI, 12.6 µM (inactive); with A549, 10.4 µM (inactive); in the assay with RXF 393 it was 5.04 µM (inactive); in the assay with UACC-257, 12.4 µM (inactive); in the assay with K562 it was 33.7 µM (inactive). Also, the GI50 was 14.4 µM (inactive) in the assay with OVCAR-8; 10.4 µM (inactive) in the assay with HCT-116; 16.1 µM (inactive) with BT-549; 15.8 µM (inactive) in the assay with HOP-62; 19.2 µM (inactive) with Malme-3M; 17.1 µM (inactive) in the assay on SF-539. The GI50 in the assay on KM12 was 15.6 µM (inactive); with Hs-578T it was 13.5 µM (inactive).
Consider `COc1ccc(-c2cn3c(n2)sc2cc(C)ccc23)cc1`, for which the GI50 in the assay on T47D was 3.33 µM (inactive); in the assay with U-251, 4.13 µM (inactive); in the assay with SF-268, 22.8 µM (inactive); with EKVX, 4.73 µM (inactive); in the assay with MDA-MB-435, 5.28 µM (inactive); with SNB-19 it was 12.5 µM (inactive). The GI50 in the assay with NCI-H23 was 9.29 µM (inactive); with LOX IMVI, 17.5 µM (inactive); in the assay with A549, 24.4 µM (inactive); in the assay on RXF 393 it was 16.6 µM (inactive); in the assay on UACC-257, 3.9 µM (inactive); in the assay on K562, 3.64 µM (inactive). The GI50 is 8.17 µM (inactive) in the assay with OVCAR-8; 13.2 µM (inactive) in the assay on HCT-116; 12.1 µM (inactive) with BT-549; 20.2 µM (inactive) with HOP-62; 37.8 µM (inactive) in the assay on Malme-3M; 13.6 µM (inactive) with SF-539. The figures for the GI50 in the assay with KM12 and in the assay on Hs-578T were 5.05 µM (inactive) and 18.2 µM (inactive), respectively.
